ChEMBL document CHEMBL1201862, “PubChem BioAssay data set” (2004)
The source made the active and inactive calls.

What was measured:
SN12K1 = assay: cells; format: functional; details: Homo sapiens
[1] = target: Voltage-dependent T-type calcium channel subunit alpha-1H (Homo sapiens, UniProt O95180); format: functional;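 further: channel activity triggered by adding a high calcium stimulation buffer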
[2] = blockers of HIV-1 ZM109 envelope-driven cell-cell fusion – HeLa effector, CEM target cells, luciferase, cherry-pick, dose response (AID 652058); format: functional, cell-based;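 further: luciferase signal from HIV-1 Env mediated cell-cell fusion of effector and target cells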
[3] = blockers of HIV-1 envelope-mediated cell-cell fusion – cherry-pick, dose response (AID 652057); format: functional, cell-based
SUMO-activating enzyme = SUMO-activating enzyme (Homo sapiens, UniProt Q9UBT2); assay: blockers of UBC9-mediated SUMO conjugation – biochemical, AlphaScreen, SUMOylation inhibitor project, confirmation (AID 2018); format: functional
SUMO-activating enzyme, sequence (Q9UBE0 whole entry): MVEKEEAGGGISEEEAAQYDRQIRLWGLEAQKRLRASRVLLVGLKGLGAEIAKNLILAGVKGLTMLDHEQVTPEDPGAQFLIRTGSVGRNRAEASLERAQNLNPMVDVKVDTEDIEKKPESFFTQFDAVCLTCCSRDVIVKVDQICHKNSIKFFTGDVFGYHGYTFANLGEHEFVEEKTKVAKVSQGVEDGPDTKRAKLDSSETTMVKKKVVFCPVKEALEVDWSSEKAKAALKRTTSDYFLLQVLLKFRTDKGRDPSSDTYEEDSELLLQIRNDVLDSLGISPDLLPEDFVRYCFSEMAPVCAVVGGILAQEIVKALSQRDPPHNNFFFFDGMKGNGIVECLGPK
SUMO-activating enzyme, sequence (Q9UBT2 whole entry): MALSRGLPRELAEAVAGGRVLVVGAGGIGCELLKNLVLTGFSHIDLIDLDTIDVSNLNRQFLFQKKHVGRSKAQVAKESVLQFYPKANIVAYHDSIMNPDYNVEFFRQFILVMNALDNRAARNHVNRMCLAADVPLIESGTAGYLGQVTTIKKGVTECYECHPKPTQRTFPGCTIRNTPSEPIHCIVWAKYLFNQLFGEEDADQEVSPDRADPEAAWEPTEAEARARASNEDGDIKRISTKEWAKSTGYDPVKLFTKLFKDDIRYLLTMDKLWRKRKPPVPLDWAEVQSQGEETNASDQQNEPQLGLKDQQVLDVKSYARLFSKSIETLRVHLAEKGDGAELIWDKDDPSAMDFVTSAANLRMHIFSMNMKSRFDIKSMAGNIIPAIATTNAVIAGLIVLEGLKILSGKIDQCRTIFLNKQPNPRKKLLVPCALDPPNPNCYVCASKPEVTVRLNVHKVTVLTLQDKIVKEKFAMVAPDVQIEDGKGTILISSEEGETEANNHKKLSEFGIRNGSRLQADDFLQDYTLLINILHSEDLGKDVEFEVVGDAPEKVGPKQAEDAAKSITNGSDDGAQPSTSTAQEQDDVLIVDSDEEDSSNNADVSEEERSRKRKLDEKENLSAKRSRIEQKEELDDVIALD

[4] = microbe, parasite or virus in culture; format: functional; details: Mycobacterium tuberculosis
[5] = target: T1, Ubiquitin-conjugating enzyme E2 N (Homo sapiens, UniProt P61088); format: functional;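 further: Dose-response confirmation in a TR-FRET assay detecting UBC13-driven polyubiquitin chain formation, inhibition measured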
T1 sequence (P61088 whole entry): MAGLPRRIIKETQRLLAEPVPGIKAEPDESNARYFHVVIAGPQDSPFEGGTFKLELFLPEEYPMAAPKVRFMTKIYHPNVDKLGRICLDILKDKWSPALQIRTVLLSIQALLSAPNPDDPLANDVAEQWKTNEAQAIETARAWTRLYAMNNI

INS1 = assay: INS-1E survival protection against cytokine death – cell-based, luminescence, retest, dose response (AID 449756); format: functional; details: Rattus norvegicus;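 further: cell death triggered by IL-1 beta plus TNF-alpha plus IFN-gamma mixture; protective hits raise ATP signal compared with cytokine alone wells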
[6] = target: T2, Carboxy-terminal domain RNA polymerase II polypeptide A small phosphatase 1 (Homo sapiens, UniProt Q9GZU7); assay: CTDSP1 inhibitors, concentration-response, biochemical, absorbance readout, ultra-high-throughput screen actives (AID 540297); format: functional
T2 sequence (Q9GZU7 whole entry): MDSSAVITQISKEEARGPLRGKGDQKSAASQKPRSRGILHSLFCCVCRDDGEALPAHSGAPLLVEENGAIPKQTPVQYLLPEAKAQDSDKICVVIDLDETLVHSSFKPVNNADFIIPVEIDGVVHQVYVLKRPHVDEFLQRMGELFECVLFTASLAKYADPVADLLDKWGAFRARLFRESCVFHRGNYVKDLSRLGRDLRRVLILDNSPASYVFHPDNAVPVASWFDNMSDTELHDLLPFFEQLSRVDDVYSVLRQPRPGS

Streptokinase A = target: T3, Streptokinase A (Streptococcus pyogenes serotype M1, UniProt P10520); assay: viability-normalized secreted streptokinase activity reduction – plasminogen activation absorbance, OD405, dose response (AID 1914); format: functional, Streptococcus pyogenes M1 GAS;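 further: secreted streptokinase activity via plasminogen activation per viability signal from cell pellet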
T3 sequence (P10520 whole entry): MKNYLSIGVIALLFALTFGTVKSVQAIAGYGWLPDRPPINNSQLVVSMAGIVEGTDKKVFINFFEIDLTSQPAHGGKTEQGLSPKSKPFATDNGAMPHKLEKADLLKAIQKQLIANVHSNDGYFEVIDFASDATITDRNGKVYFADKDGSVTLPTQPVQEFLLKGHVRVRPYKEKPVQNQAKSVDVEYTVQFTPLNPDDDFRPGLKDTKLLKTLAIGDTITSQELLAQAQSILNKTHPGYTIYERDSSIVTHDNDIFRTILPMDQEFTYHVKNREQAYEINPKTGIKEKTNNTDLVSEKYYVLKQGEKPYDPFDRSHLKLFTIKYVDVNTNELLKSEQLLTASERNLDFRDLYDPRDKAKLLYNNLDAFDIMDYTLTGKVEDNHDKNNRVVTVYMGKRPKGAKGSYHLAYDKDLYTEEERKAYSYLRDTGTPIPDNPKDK

Streptococcus = assay: GAS UMAA2166 growth inhibition – luminescence, BacTiterGlo, counter-screen for streptokinase expression inhibitor project, dose response (AID 1915); format: functional, organism-based;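 further: potency for reduction of bacterial viability or growth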
[7] = tested on: Streptococcus sp. 'group A'; assay: Streptococcus pyogenes SK(-)GAS viability under kanamycin – luminescence, BacTiterGlo, confirmation, counter-screen for streptokinase expression inhibitor project, dose response (AID 1900); format: functional, organism-based
HEK293 = assay: EBV LMP1 TES2 canonical NF-kB signalling blockers – cell-based, HEK293, luciferase, cherry-pick, dose response (AID 588343); format: functional; details: Homo sapiens
[8] = target: T4, Heat shock factor protein 1 (Mus musculus, UniProt P38532); assay: decrease of HSF1-responsive luciferase luminescence – cell-based, NIH3T3, dose retest, confirmation (AID 2382); format: functional;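 further: NIH3T3 fibroblasts with HSF1-driven luciferase reporter stressed by proteasome inhibitor MG132; luminescence from HSF1-driven luciferase expression after 8 hours of MG132 stress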
T4 sequence (P38532 whole entry): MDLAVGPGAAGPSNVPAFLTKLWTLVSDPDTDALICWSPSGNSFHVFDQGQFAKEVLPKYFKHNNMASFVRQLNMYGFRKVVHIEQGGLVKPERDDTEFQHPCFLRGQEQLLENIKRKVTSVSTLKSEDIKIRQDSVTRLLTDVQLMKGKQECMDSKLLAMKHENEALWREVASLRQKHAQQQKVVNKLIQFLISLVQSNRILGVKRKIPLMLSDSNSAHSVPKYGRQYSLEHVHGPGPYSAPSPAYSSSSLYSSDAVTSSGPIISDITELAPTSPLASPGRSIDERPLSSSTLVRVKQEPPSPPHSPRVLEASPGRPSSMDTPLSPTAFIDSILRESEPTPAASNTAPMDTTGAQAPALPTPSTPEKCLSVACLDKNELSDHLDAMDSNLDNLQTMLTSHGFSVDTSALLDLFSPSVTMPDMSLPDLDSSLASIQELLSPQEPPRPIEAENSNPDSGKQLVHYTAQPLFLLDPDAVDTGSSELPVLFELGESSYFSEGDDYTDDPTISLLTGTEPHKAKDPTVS

[9] = target: T5, Calpain-2 catalytic subunit (Sus scrofa, UniProt P43367); assay: m-calpain protease blockers, concentration series – biochemical, fluorogenic peptide substrate, dose response (AID 1420); format: functional
T5 sequence (P43367 whole entry): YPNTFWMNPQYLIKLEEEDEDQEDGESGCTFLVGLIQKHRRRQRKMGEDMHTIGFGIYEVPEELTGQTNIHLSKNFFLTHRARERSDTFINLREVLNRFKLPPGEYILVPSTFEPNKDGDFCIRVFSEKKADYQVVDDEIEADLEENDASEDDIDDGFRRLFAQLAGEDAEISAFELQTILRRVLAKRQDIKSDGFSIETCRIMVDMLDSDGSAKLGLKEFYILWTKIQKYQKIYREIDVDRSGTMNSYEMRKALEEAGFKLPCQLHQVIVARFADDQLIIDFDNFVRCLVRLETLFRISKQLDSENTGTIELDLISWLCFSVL

BJ [10] = assay: BJ-TERT-LT-ST fibroblast viability loss – cell-based, RAS-independent, luminescence, dose response (AID 1935); format: functional; details: Homo sapiens;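 further: BJ fibroblasts immortalized with TERT plus LT and ST oncogenes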
BJ [11] = assay: BJ-TERT fibroblast viability loss – cell-based, RAS-independent, luminescence, dose response (AID 1933); format: functional; details: Homo sapiens
[12] = DRD fibroblast viability loss – cell-based, non-viral oncogenic, luminescence, dose response (AID 1934); format: functional; details: Homo sapiens
BJ [13] = assay: cells; format: functional, cell-based; details: Homo sapiens
Protein RecA = target: T6, Protein RecA (Mycobacterium tuberculosis, UniProt P9WHJ3); assay: Fluorescence Cell-Free Homogeneous Dose Retest to Identify Inhibitors of RecA-Intein Splicing Activity. [Related pubchem assays (depositor defined):AID2097, AID2223, AID489010, AID492950]; format: functional
T6 sequence (P9WHJ3 whole entry): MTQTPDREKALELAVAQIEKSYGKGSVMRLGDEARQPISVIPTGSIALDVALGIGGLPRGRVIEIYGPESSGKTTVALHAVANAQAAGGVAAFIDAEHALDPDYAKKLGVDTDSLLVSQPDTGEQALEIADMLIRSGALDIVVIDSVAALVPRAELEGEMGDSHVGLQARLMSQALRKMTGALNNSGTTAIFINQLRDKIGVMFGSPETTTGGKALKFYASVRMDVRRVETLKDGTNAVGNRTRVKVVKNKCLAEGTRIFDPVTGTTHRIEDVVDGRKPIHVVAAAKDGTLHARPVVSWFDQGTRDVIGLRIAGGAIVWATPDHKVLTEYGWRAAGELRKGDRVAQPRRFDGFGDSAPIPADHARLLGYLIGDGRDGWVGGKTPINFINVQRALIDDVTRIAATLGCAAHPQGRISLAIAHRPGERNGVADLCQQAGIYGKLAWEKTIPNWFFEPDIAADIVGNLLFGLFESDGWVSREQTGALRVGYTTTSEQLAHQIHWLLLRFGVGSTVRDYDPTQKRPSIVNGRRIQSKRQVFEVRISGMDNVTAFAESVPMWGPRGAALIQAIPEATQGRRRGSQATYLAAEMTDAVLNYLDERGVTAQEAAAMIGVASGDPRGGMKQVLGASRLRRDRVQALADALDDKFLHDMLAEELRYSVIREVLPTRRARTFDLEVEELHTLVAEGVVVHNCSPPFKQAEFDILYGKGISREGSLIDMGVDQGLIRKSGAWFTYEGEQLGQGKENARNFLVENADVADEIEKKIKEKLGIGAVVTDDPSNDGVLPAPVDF

[14] = target: T7, Replicative DNA helicase DnaB (Mycobacterium tuberculosis, UniProt P9WMR3); assay: DnaB intein splicing inhibitors, dose response, biochemical, cell-free fluorescence (AID 449749); format: functional
T7 sequence (P9WMR3 whole entry): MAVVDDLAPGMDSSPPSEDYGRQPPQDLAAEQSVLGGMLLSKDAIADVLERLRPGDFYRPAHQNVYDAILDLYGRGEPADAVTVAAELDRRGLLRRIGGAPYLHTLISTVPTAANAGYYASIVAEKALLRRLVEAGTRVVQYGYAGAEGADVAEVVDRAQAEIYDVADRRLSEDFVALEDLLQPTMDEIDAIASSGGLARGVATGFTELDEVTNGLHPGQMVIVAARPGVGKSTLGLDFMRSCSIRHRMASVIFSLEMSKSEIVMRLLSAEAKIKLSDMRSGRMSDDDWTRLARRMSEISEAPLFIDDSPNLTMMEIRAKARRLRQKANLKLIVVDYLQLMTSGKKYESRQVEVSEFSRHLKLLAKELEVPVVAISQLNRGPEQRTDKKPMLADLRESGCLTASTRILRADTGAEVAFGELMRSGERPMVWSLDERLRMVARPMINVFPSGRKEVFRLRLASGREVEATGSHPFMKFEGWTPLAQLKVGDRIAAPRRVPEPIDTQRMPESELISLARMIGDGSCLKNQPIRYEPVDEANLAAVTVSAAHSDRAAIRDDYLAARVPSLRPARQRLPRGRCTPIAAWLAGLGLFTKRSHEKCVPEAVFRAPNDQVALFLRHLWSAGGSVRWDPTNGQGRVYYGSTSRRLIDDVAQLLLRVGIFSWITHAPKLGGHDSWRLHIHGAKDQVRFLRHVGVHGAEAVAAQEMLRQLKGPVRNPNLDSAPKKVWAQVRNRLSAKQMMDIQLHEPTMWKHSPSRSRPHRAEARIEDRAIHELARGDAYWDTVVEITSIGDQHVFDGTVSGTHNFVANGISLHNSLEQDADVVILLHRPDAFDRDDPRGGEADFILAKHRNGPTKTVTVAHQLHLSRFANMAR

Voltage-dependent T-type calcium channel subunit alpha-1H, sequence (O95180 whole entry, the tested form may be a part): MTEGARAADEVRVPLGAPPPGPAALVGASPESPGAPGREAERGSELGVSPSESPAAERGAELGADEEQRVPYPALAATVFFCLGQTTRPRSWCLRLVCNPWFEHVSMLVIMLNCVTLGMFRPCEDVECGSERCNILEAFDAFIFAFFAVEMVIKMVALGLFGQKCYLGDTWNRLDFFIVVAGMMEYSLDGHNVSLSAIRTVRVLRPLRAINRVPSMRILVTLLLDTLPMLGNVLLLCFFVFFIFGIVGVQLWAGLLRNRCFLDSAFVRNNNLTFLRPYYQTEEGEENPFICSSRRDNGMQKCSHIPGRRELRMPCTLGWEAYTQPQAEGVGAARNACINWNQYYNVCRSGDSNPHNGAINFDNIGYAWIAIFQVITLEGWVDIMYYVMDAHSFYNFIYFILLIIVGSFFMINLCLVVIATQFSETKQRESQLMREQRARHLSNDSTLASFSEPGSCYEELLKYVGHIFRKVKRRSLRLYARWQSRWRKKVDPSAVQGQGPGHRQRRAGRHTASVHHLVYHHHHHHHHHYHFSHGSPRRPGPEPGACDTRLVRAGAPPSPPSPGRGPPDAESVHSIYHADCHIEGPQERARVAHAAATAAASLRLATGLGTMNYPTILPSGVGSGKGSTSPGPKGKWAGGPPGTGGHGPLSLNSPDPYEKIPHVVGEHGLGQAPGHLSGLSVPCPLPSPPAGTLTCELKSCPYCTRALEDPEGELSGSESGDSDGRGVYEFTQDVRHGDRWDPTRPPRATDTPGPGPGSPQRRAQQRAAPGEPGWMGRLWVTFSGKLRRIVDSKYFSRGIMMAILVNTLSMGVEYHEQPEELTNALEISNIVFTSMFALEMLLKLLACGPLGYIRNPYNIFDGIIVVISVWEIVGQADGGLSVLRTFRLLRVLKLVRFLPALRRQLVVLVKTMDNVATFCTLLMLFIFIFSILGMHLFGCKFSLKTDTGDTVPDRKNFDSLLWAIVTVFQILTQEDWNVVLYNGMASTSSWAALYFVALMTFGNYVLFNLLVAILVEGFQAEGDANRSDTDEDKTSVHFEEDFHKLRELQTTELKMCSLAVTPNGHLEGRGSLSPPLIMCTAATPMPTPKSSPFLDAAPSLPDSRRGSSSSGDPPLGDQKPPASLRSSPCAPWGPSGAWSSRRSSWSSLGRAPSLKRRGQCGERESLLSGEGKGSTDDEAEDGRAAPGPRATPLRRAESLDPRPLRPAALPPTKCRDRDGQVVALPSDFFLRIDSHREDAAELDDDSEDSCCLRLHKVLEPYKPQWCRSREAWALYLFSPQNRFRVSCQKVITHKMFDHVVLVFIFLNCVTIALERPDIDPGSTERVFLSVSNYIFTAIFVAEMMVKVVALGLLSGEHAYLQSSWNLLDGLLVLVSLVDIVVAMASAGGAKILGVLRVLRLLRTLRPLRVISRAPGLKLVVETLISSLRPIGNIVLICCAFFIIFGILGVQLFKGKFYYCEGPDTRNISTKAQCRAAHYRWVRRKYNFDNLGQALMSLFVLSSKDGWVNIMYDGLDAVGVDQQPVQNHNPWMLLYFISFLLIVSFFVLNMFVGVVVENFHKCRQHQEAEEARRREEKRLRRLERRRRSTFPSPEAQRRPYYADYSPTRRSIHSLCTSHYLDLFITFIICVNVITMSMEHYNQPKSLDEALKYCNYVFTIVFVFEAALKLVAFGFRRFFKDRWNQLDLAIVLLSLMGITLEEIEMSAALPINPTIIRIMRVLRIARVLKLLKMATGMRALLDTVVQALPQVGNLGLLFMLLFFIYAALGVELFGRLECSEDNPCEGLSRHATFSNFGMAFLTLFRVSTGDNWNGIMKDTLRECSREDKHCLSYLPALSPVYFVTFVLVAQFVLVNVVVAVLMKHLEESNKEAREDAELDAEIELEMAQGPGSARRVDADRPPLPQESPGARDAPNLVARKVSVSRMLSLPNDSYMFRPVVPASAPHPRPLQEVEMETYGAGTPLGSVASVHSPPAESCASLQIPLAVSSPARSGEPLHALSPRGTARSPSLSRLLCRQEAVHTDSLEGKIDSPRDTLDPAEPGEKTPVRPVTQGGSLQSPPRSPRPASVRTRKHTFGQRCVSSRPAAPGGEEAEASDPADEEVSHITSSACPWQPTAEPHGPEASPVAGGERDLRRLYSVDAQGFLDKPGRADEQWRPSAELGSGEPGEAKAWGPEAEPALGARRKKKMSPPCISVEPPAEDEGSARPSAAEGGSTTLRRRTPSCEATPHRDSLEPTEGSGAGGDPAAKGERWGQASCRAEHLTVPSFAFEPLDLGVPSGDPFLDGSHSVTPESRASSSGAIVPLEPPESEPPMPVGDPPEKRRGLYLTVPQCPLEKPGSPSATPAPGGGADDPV

Compound: C/C=C/C1=C(Cl)C(=O)[C@@H](Cl)[C@@]1(O)C(=O)OC [(+)-CRYPTOSPORIPSIN]
- GI50 (SN12K1): 1.89 µM (inactive)

Compound: COc1cccc(-c2nnc(SCC(=O)NCc3ccc4c(c3)OCO4)n2Cc2ccco2)c1
- EC50 [1]: 8.92 µM (active)

Compound: Cc1ccc(S(=O)(=O)N(C)C[C@H]2Oc3cc(-c4cccc(F)c4)ccc3S(=O)(=O)N([C@H](C)CO)C[C@H]2C)cc1
- AC50 [2]: < 0.26 µM (active)
- AC50 [3]: 1.47 µM (active)

Compound: Cc1cccc(C)c1OCC(=O)N=Nc1c(O)[nH]c2ccc(Br)cc12
- IC50 (SUMO-activating enzyme): 10.6 µM (active)

Compound: CC[C@@H](C)[C@H](CN[C@H](CNC)C(C)C)NC[C@@H](C)c1ccc(CC(C)C)cc1
- CC50 [4]: 10 µM (active)
- IC50 [5]: > 20 µM (inactive)

Compound: CCOc1ccc(C(=O)Nc2c3c(nn2C(C)(C)C)CSC3)cc1OCC
- EC50 [1]: 3.79 µM (active)

Compound: CC(C)NC(=S)N/N=C/c1cc(Br)ccc1O
- CC50 [4]: 38.5 µM (active)
- AC50 (INS1): 1.65 µM (active)

Compound: COc1cc2ccccc2cc1C(=O)NC(=S)Nc1ccc(C(=O)O)cc1
- IC50 [6]: 4.12 µM (active)
- EC50 (Streptokinase A): > 150 µM (not active)
- EC50 (Streptococcus): 60.9 µM (active)
- EC50 [7]: 8.15 µM (active)

Compound: O=Cc1ccc(-c2cccs2)s1
- AC50 (HEK293): 6.76 µM (active)

Compound: CCOc1cc(/C=N/N=C(\N)c2nonc2N)cc(Br)c1OCc1cccc2ccccc12
- IC50 (SUMO-activating enzyme): 80 µM (active)

Compound: O=C(O)CNC(=O)CC1SC(NNC2=NC(=O)CS2)=NC1=O (stereo not given)
- IC50 [6]: 5.27 µM (active)

Compound: CC(C)[C@H](NC(=O)Cc1ccccc1)C(=O)OCc1cc(=O)n2c(n1)sc1ccccc12
- IC50 [6]: 3.58 µM (active)
- EC50 [8]: 21.5 µM (active)

Compound: CC(=O)N1c2ccccc2N(Cc2ccc(C)cc2C)C(=O)C1(C)C
- EC50 [1]: 4.43 µM (active)

Compound: Cc1ccsc1S(=O)(=O)N1CCCC(CCC(=O)NCc2ccccc2F)C1 (stereo not given)
- IC50 [9]: > 50 µM (not active)

Compound: CN(C)c1cccc(/N=C2/C=C(N3CCOCC3)CC(C)(C)C2)c1
- IC50 [6]: 5.65 µM (active)

Compound: CC(=O)c1sc(NC(=O)COc2ccc(C(C)C)c(C)c2)nc1C
- IC50 [9]: 9.95 µM (not active)

Compound: COc1ccccc1N1CCN(C(=O)CCC(=O)Nc2nnc(CC(C)C)s2)CC1
- EC50 (BJ [10]): > 150 µM (not active)
- EC50 (BJ [11]): > 150 µM (not active)
- EC50 [12]: > 150 µM (inconclusive)
- EC50 (BJ [13]): > 150 µM (not active)

Compound: Cn1c2ccccc2c2cc(C(=O)NNC(=O)CCl)sc21
- CC50 [4]: 21.3 µM (active)
- EC50 (Protein RecA): 15.7 µM (active)
- AC50 [14]: > 380 µM (inactive)

Compound: CCc1ccc(S(=O)(=O)NCc2csc(-c3ccccc3)n2)s1
- EC50 [1]: 4.61 µM (active)

Compound: Cc1cccc(NS(=O)(=O)c2ccc(NC(=O)CN(c3cc([N+](=O)[O-])ccc3C)S(C)(=O)=O)cc2)c1
- EC50 (BJ [10]): 7.77 µM (inconclusive)
- EC50 (BJ [11]): 22.7 µM (active)
- EC50 [12]: > 150 µM (not active)
- EC50 (BJ [13]): 7.28 µM (active)
